Laboratory results taken from patent US20240207379A1, “STRATEGIES TO PREVENT AND/OR TREAT IMMUNE RESPONSES TO SOLUBLE ALLOFACTORS” (IMCYSE SA, priority 2008, published 2024).

Experiments:
[1] = test system: CFSE-labelled CD4(F8-) effector CD4+ T cells; experiment: Apoptosis of factor VIII-specific effector CD4+ T cells by cytolytic CD4+ T cells elicited with modified factor VIII epitope (Annexin V / 7-AAD); assay type: cell-based, factor VIII KO mice; settings: APC (spleen B cells) loaded with 5 μg/ml huFVIII and 1 µM peptide, 72 h at 37° C., baseline mortality subtracted
Excerpt: FIG. 2. Apoptosis of allofactor-specific effector T-cells by cytolytic CD4+ T-cells induced by a T-cell epitope derived from said allofactor and modified by attaching a thioreductase motif. The allofactor used was factor VIII. See Example 5 for more details.
Polyclonal effector CD4+ T cells were obtained from the spleen of factor VIII KO mice immunised with 2 IU of recombinant human FVIII (CD4(F8-)) and purified using anti-CD4 magnetic beads. The cells were then labelled with CFSE.
Induction of apoptosis as measured by of CFSE-labelled cells was then measured by Annexin V and 7-AAD staining after incubating such cells with APC (spleen B cells) loaded with 5 μg/ml huFVIII and 1 µM of peptide of SEQ ID NO:5 (CGHCGGFTNMFATWSPSK, corresponding to the 2196-2207 amino acid sequence of the C2 domain of human factor VIII, modified by addition of a thioreductase motif (underlined) separated by 2 glycines from the Factor VIII T-cell epitope). Apoptosis was measured after 72 h culture at 37° C. When CFSE-labelled CD4(F8-) cells were co-cultured with CD4+ T cells obtained from mice immunised with a synthetic peptide of SEQ ID NO:5 (cytolytic CD4+ T cells), significant apoptosis was induced. […] When CFSE-labelled CD4(F8−) cells were co-cultured in the presence of a double number of unlabeled CD4(F8−) cells, no apoptosis was induced (“CD4(F8−)” caption in FIG. 2). […]

murine splenic B cells = experiment: Induction into apoptosis of splenic B cells of naïve mice by CD4+ T cells expanded with peptide (annexin V / 7-AAD Facs); assay type: cell-based, C57BI/6 mice
Method: FIG. 1. The bars in this Figure illustrate the viability of murine splenic B cells incubated under different conditions and evaluated by Facs analysis of annexin V binding and 7-AAD (two markers of apoptosis). • B (wt-pep): murine splenic B cells incubated with natural (wild-type) T-cell epitope derived from human anti-fVIII antibody; • B (cc-pep): murine splenic B cells incubated with T-cell epitope derived from human anti-fVIII antibody, wherein said T-cell epitope is modified by attaching the amino acids CHGC (SEQ ID NO: 20) to the N-terminus of the epitope; • B (cc-pep)+ T (cc-pep): murine splenic B cells incubated with modified anti-fVIII antibody T-cell epitope and with T cells expanded with modified T-cell epitope (modification as in “B (cc-pep)”); • B (wt-pep)+ T (cc-pep): murine splenic B cells incubated with wild-type anti-fVIII antibody T-cell epitope and T cells expanded with the corresponding modified T-cell epitope.
It was determined whether naïve B cells presenting a class II restricted T cell epitope derived from a BCR idiotype could be deleted by recognition and activation of T cells elicited to a specific anti-factor VIII antibody carrying the same idiotype. […]

Sequence: CGHCGGFTNMFATWSPSK (modified human factor VIII T-cell epitope; MISC_FEATURE - thioreductase motif; MISC_FEATURE - Gly-Gly-linker) [SEQ ID NO:5]
- apoptosis of CFSE-labelled CD4(F8-) cells co-cultured with cytolytic CD4+ T cells from mice immunised with the peptide ([1]; CD4(F8+) pool1): 6.6%
- apoptosis of CFSE-labelled CD4(F8-) cells co-cultured with cytolytic CD4+ T cells from mice immunised with the peptide ([1]; CD4(F8+)pool2): 8.4%

Sequence: CHGCYCAVPDPDA (modified T-cell epitope of CDR3 of anti-factor VIII antibody BO2C11; MISC_FEATURE - thioreductase motif) [SEQ ID NO:2]
- induction into apoptosis of B cells by T cells expanded with the peptide (murine splenic B cells; B cells loaded with either peptide of SEQ ID NO:1 or SEQ ID NO:2, FIG. 1): induced into apoptosis

Sequence: YCAVPDDPDA (T-cell epitope of CDR3 of anti-factor VIII antibody BO2C11) [SEQ ID NO:1, reference compound]
- influence on the survival of control B cells of T cells expanded with the peptide (murine splenic B cells; incubation period of 18 h, data not shown): no or only little influence
